Results on 21 compounds are retold here after publication PMC4437985, “Inhibition of a Putative Dihydropyrimidinase from Pseudomonas aeruginosa PAO1 by Flavonoids and Substrates of Cyclic Amidohydrolases” (PLoS ONE, 2015).

The target in assay [1] is T1, dihydropyrimidinase from P. aeruginosa PAO1 (Pseudomonas aeruginosa, UniProt Q9I676). Description: Substrate specificity / Michaelis-Menten kinetics of dihydropyrimidinase. The assay is classed as biochemical. The conditions noted are these: for Fold: V max/K m relative to dihydrouracil; for K m / V max / V max/K m: compound as substrate. On the procedure: (§1) A rapid spectrophotometric assay was used to determine the enzymatic activity according to a previously described protocol for hydantoinase, allantoinase, dihydroorotase, and imidase. Dihydrouracil, 5-propyl-hydantoin, and phthalimide were used as substrates. Unless explicitly stated otherwise, dihydrouracil (2 mM) was used as the substrate in the standard assay of dihydropyrimidinase. Briefly, the decrease in absorbancy at 230, 248, and 298 nm was measured upon hydrolysis of dihydrouracil, 5-propyl-hydantoin, and phthalimide as the substrate at 25°C, respectively. To start the reaction, the purified dihydropyrimidinase (10–70 μg) was added to a 2 mL solution containing the substrate and 100 mM Tris–HCl (pH 8.0). Substrate hydrolysis was monitored with a UV/vis spectrophotometer (Hitachi U 3300, Hitachi High-Technologies, Tokyo, Japan). The extinction coefficient of each substrate was determined experimentally by direct measurement with a spectrophotometer. The extinction coefficients of dihydrouracil, 5-propyl-hydantoin, and phthalimide were 0.683 mM^-1cm^-1 at 230 nm, 0.0538 mM^-1cm^-1 at 248 nm, and 3.12 mM^-1cm^-1 at 298 nm, respectively. The initial rates of change were a function of enzyme concentration within the absorbance range of 0.01–0.18 min^-1. A unit of activity was defined as the amount of enzyme catalyzing the hydrolysis of 1 μmol substrate/min, and the specific activity was expressed in terms of units of activity per milligram of enzyme. The kinetic parameters K m and V max were determined from a non-linear plot by fitting the hydrolyzing rate from individual experiments to the Michaelis–Menten equation (Enzyme Kinetics module of Sigma-Plot; Systat Software, Chicago, IL, USA).

Assay [2] deals with T1, dihydropyrimidinase from P. aeruginosa PAO1. The assay is classed as biochemical.
Assay [3] shares this target. Briefly: Spectrophotometric enzyme assay: inhibition of dihydropyrimidinase. The assay is classed as biochemical. The conditions noted are these: for Inhibitory effect on dihydropyrimidinase activity: 5-propyl-hydantoin or dihydrouracil as substrate. On the procedure: as §1
The target of assay [4] is N337A mutant of P. aeruginosa dihydropyrimidinase (Pseudomonas aeruginosa, UniProt Q9I676, N337A). Briefly: Fluorescence quenching of the N337A mutant. The assay is classed as binding, Pseudomonas aeruginosa PAO1. The note with it: for Red shift in λmax: N337A mutant, from 333.5 nm. As to the method: The dihydropyrimidinase mutants (H59A, H61A, K150A, Y155A, H183A, H239A, S289A, D316A, and N337A) were generated according to the manufacturer’s protocol (Stratagene, LaJolla, CA). The presence of the mutation was verified by DNA sequencing in each construct.
(§2) The dissociation constants (K d) of dihydropyrimidinase was determined using the fluorescence quenching method as previously described for allantoinase, dihydroorotase, and DnaB helicase. An aliquot of each compound was added into the solution containing dihydropyrimidinase (0.8 μM), 50 mM HEPES at pH 7.0. The decrease in intrinsic fluorescence of protein was measured at 334.5 nm upon excitation at 279 nm and 25°C with a spectrofluorimeter (Hitachi F-2700; Hitachi High-Technologies, Tokyo, Japan). At least seven data points were used to calculate each K d. Each data point was an average of 2–3 determinants, and the difference of the determinants was within 10%. The K d was obtained by the equation: ΔF = ΔFmax-K d(ΔF/[compound]) (Enzyme Kinetics module of Sigma-Plot; Systat Software, Chicago, IL, USA).

For assay [5], the target named is P. aeruginosa dihydropyrimidinase (Pseudomonas aeruginosa, UniProt Q9I676). Description: Fluorescence quenching of wild-type dihydropyrimidinase. The assay is classed as binding. The note with it: for Quenching of intrinsic fluorescence / Red shift in emission wavelength: wild-type enzyme; for Quenching of intrinsic fluorescence: 50 μM compound; for Red shift in emission wavelength: λmax from 333.5 nm. As to the method:
as §2

The mark [6] stands for this setting: metal ion 1 mM added to reaction mixture, enzyme purified without metal supplement, dihydrouracil substrate.
Where [7] appears, read: specific activity relative to no metal added, metal ion 1 mM.
The mark [8] stands for this setting: substrate and inhibitor analogs of other cyclic amidohydrolases, read-out: IC50.
[9] abbreviates: 40 μM dihydromyricetin, dihydrouracil substrate.
The mark [10] stands for this setting: IC50, 5-propyl-hydantoin as substrate.
Where [11] appears, read: IC50, dihydrouracil as substrate.

Entries after “also recorded” stand apart in the source; their conditions may differ. Read-outs that look alike come from different tables or passages of the source. Some results are limits rather than exact numbers.

T1 sequence (Q9I676 whole entry): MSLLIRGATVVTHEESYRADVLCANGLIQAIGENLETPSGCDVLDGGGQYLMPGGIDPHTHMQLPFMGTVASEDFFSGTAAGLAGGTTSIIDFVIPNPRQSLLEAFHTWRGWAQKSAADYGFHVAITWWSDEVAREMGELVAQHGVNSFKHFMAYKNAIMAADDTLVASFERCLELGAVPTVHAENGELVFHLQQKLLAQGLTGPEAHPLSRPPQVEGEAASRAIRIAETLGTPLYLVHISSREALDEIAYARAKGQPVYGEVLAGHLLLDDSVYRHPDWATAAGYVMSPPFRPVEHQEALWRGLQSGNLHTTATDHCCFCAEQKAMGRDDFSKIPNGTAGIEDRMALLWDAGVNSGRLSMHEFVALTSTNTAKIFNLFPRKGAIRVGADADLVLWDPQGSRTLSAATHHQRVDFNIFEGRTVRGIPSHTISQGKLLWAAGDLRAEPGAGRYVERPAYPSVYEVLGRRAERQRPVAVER
P. aeruginosa dihydropyrimidinase, sequence (Q9I676 whole entry): as above
N337A mutant of P. aeruginosa dihydropyrimidinase, sequence (Q9I676 whole entry N337A): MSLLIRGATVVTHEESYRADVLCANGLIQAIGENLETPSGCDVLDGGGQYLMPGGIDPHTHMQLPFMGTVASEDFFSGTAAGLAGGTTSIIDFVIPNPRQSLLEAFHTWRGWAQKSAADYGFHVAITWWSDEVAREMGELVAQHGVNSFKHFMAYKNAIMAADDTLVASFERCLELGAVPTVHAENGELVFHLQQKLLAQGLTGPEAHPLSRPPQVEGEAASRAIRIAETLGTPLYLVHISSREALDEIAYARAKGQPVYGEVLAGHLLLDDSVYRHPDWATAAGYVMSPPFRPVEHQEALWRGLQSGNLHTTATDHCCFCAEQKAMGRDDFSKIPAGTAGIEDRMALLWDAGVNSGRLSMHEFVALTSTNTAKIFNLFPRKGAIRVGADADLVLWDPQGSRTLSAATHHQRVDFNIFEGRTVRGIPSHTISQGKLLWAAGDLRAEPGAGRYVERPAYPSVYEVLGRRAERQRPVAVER

`O=C1NC(=O)c2ccccc21` [phthalimide]: in assay [1], the “Catalytic efficiency toward dihydrouracil higher than toward this substrate” value is “fourfold”, the Fold is given as 0.25, the K m turned out to be 1000 ± 300 µM and the V max amounted to 2.7 ± 0.6 µmol/mg/min. For the same compound, the “V max/K m” value in assay [1] amounted to 2.7.
In the case of `[Ca+2].[Cl-].[Cl-]` [CaCl2], the “Effect of metal addition on dihydropyrimidinase activity” value (shortened to “Effect of metal addition”) in assay [2] (1 mM added to reaction mixture) is reported as “not useful”. The Specific activity in assay [2] (setting [6]) was determined as 0.82 ± 0.05 µmol/mg/min. The same compound returned a Fold in assay [2] (setting [7]) of 1.0.
Taken in the same sequence, the figures for `[Cl-].[Cl-].[Mg+2]` [MgCl2] were “not useful”, 0.82 ± 0.05 µmol/mg/min and 1.0.
Take `O=C(O)CC1NC(=O)NC1=O` (centres unmarked) [5-hydantoin acetic acid]: in assay [3], the “IC50 range” value was “within the millimolar range” and the “Inhibitory effect on dihydropyrimidinase activity” value is on record as “only slightly inhibit”. The concentration for half-maximal inhibition (IC50) (as a rule, the concentration that inhibits the measured activity by half) in assay [3] (setting [8]) was roughly 50000 µM.
`O=c1c(O)c(-c2ccc(O)c(O)c2)oc2cc(O)cc(O)c12` [quercetin]: the “Inhibitory effect on dihydropyrimidinase activity” value in assay [3] is given as “insignificant”.
As for `O=c1c(O)c(-c2ccc(O)cc2)oc2cc(O)cc(O)c12` [kaempferol], the results for the “Inhibitory effect” value in assay [3] (5-propyl-hydantoin as substrate) and in assay [3] (dihydrouracil as substrate) were “only slightly inhibited” and “significant”, respectively. The IC50 in assay [3] (dihydrouracil as substrate, read-out: IC50) is 50 ± 2 µM.
`O=C1CC(C(=O)O)NC(=O)N1` (centres unmarked) [dihydroorotate]: in assay [1], the K m result is “Not hydrolyzed” and the V max entry is recorded as “Not hydrolyzed”. Also, in assay [3], the “IC50 range” value is “within the millimolar range” and the “Inhibitory effect on dihydropyrimidinase activity” value is “slightly inhibit; also recorded: only slightly inhibited”. The IC50 in assay [3] (setting [8]) is roughly 30000 µM.
In the case of `O=C1CCNC(=O)N1` [dihydrouracil], in assay [1], the Fold stood at 1.0, the K m amounted to 700 ± 100 µM, the V max was determined as 7.6 ± 0.4 µmol/mg/min and the “V max/K m” value is 10.9.
`[Cl-].[Cl-].[Co+2]` [CoCl2]: in assay [2], the “Effect of metal addition” value is given as “activated”, the Fold is given as 7.1, the Specific activity was 5.80 ± 0.16 µmol/mg/min and the “Specific activity toward dihydrouracil” value was 5.9 ± 0.4 µmol/mg/min.
For `CC(=O)NO` [acetohydroxamate], in assay [3], the “IC50 range” value was “within the millimolar range” and the “Inhibitory effect on dihydropyrimidinase activity” value is listed as “only slightly inhibit”.
On to `NC(=O)NC1NC(=O)NC1=O` (centres unmarked) [allantoin], for which, in assay [1], the K m entry is listed as “Not hydrolyzed” and the V max result was “Not hydrolyzed”. Besides, in assay [3], the “IC50 range” value is recorded as “within the millimolar range” and the “Inhibitory effect on dihydropyrimidinase activity” value is on record as “slightly inhibit; also recorded: only slightly inhibited”.
`O=C(O)c1cc(=O)[nH]c(=O)[nH]1` [orotic acid]: in assay [3], the “IC50 range” value was “within the millimolar range” and the “Inhibitory effect on dihydropyrimidinase activity” value is recorded as “slightly inhibit”.
In the case of `Nc1nc[nH]n1` [3-amino-1,2,4-triazole], in assay [3], the “Concentration that affected enzyme activity” value lay within 100 to 750 mM, the “IC50 range” value is “within the millimolar range” and the “Inhibitory effect on dihydropyrimidinase activity” value was “slightly inhibit”.
As for `[Cl][Mn][Cl]` [MnCl2], the “Effect of metal addition” value in assay [2] (1 mM added to reaction mixture) is given as “activated”. Also, in assay [2] (setting [6]), the Specific activity amounted to 1.72 ± 0.09 µmol/mg/min. Further, in assay [2] (setting [7]), the Fold stood at 2.1.
`O=C1c2c(O)cc(O)cc2O[C@H](c2cc(O)c(O)c(O)c2)[C@H]1O` [dihydromyricetin]: in assay [4], the Kd (in general, a measure of binding affinity in units of concentration) came out at 24.1 ± 1.7 µM and the “Red shift in λmax” value is ~ 23.5 nm. In addition, in assay [5], the Kd worked out at 22.6 µM, the “Quenching of intrinsic fluorescence” value is on record as 89.1% and the “Red shift in emission wavelength” value was ~ 25 nm. In assay [3], the “Inhibition stronger than the substrate analogs” value was > 3 orders of magnitude and the “Inhibitory effect on dihydropyrimidinase activity” value is reported as “significant inhibitory effect”. Besides, in assay [3] (setting [9]), the “K m in the presence of inhibitor” value came to 1600 ± 200 µM and the “V max in the presence of inhibitor” value was 5.4 ± 0.4 µmol/mg/min. Also, the “Type of inhibition (Lineweaver-Burk plot)” value in assay [3] (40 μM inhibitor, different concentrations of dihydrouracil) is “competitive inhibitor”. In assay [3] (setting [10]), this compound showed an IC50 of 40 µM. The same compound displayed an IC50 in assay [3] (setting [11]) of 48 µM.
With `O=c1c(O)c(-c2cc(O)c(O)c(O)c2)oc2cc(O)cc(O)c12` [myricetin], the “Red shift in λmax” value in assay [4] is recorded as ~ 7.5 nm. Besides, in assay [5], binding was characterised by a dissociation constant (Kd) of 28.8 ± 2.2 µM, the “Quenching of intrinsic fluorescence” value was 56.2% and the “Red shift in emission wavelength” value is reported as ~ 7 nm. Further, the “Inhibitory effect on dihydropyrimidinase activity” value in assay [3] was “strongly inhibit”. Moreover, the IC50 in assay [3] (setting [10]) stood at 63 ± 3 µM. In assay [3] (setting [11]), this compound returned an IC50 of 83 ± 3 µM. Besides, the “Inhibitory effect” value in assay [3] (dihydrouracil as substrate) is recorded as “significant”.
For the compound `CCCC1NC(=O)NC1=O` (centres unmarked) [5-propyl-hydantoin], in assay [1], the “Catalytic efficiency toward dihydrouracil higher than toward this substrate” value is on record as 100 fold, the Fold is on record as 0.01, the K m came out at 8100 ± 1500 µM and the V max came out at 1.2 ± 0.1 µmol/mg/min. Moreover, in assay [1], the “V max/K m” value amounted to 0.15.
Regarding `[Cl-].[Cl-].[Zn+2]` [ZnCl2], the “Effect of metal addition” value in assay [2] (1 mM added to reaction mixture) is on record as “activated”. Also, the Specific activity in assay [2] (setting [6]) is 2.90 ± 0.10 µmol/mg/min. The Fold in assay [2] (setting [7]) amounted to 3.5.
In the case of `[Cl][Ni][Cl]` [NiCl2], the “Effect of metal addition” value in assay [2] (1 mM added to reaction mixture) is reported as “not useful”. Besides, the Specific activity in assay [2] (setting [6]) was found to be 0.91 ± 0.06 µmol/mg/min. Also, the Fold in assay [2] (setting [7]) came out at 1.1.
Taken in the same sequence, the figures for `[Cl][Cd][Cl]` [CdCl2] were “not useful”, 0.74 ± 0.04 µmol/mg/min and 0.9.
On to myricitrin, for which, in assay [3], the “Inhibitory effect on dihydropyrimidinase activity” value is “No effect”.
